Drawing on publication PMC12188165, “Engineering of the Thiamine Diphosphate‐Dependent JanthE for the Synthesis of Tertiary Alcohols” (Chemistry (Weinheim an Der Bergstrasse, Germany), 2025), this text covers Km for three molecules.

Read-outs that look alike come from different tables or passages of the source.

The target in one data set is T1, JanthE (Janthinobacterium sp. HH01, UniProt A0AAT8XUE4, K568S, form not given).
T1 construct: purified enzyme; expression and tag details only in supplement
T1 sequence (A0AAT8XUE4 entry or part of it K568S, form open): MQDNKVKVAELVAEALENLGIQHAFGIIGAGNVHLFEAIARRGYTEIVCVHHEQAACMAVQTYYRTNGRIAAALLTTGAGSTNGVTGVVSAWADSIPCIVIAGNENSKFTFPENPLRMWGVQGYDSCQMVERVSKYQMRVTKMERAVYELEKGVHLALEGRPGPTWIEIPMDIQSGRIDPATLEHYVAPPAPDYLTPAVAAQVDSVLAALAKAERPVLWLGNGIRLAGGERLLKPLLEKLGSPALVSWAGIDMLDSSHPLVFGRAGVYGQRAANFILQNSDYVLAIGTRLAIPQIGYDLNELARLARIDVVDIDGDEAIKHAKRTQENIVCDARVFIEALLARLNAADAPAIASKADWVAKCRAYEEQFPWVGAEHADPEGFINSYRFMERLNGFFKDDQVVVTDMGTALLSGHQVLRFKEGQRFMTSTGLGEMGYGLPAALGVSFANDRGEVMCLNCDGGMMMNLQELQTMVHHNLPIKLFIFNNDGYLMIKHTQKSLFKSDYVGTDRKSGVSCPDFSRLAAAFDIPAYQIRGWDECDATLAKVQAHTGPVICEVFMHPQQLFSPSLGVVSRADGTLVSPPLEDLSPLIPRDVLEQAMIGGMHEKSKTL
Kind of data set: initial-rate kinetics, formation of product […]. Format: biochemical. The note with it: 1 mM Mg2+, 0.05 mM ThDP, 200 mM NaCl, 100 mM sodium phosphate pH 8, read-out: K567S.

Substrate in data set [1]: CC(=O)COc1ccccc1
Kind of data set: purified protein. Format: biochemical, Janthinobacterium sp. HH01. To be noted: 50 mM 2-oxobutanoate co-substrate, 1 mM Mg2+, 0.05 mM ThDP, 200 mM NaCl, 100 mM sodium phosphate pH 8.

Substrate in data set [2]: CCC(=O)C(=O)O
Briefly: purified protein. Format: biochemical, Janthinobacterium sp. HH01. The note with it: 20 mM phenoxy-2-propanone co-substrate, 1 mM Mg2+, 0.05 mM ThDP, 200 mM NaCl, 100 mM sodium phosphate pH 8.

For the molecule `CCC(=O)C(=O)O` [compound 2, 2-oxobutanoate], at JanthE (20 mM phenoxy-2-propanone co-substrate), the Km came out at 0.74 ± 0.31 mM. As to `CC(=O)COc1ccccc1` [compound 6, phenoxy-2-propanone], the Km on JanthE (50 mM 2-oxobutanoate co-substrate) came out at 31.8 ± 6 mM.

B1: JanthE (Janthinobacterium sp. HH01) (protein)
chain: MQDNKVKVAELVAEALENLGIQHAFGIIGAGNVHLFEAIARRGYTEIVCVHHEQAACMAVQTYYRTNGRIAAALLTTGAGSTNGVTGVVSAWADSIPCIVIAGNENSKFTFPENPLRMWGVQGYDSCQMVERVSKYQMRVTKMERAVYELEKGVHLALEGRPGPTWIEIPMDIQSGRIDPATLEHYVAPPAPDYLTPAVAAQVDSVLAALAKAERPVLWLGNGIRLAGGERLLKPLLEKLGSPALVSWAGIDMLDSSHPLVFGRAGVYGQRAANFILQNSDYVLAIGTRLAIPQIGYDLNELARLARIDVVDIDGDEAIKHAKRTQENIVCDARVFIEALLARLNAADAPAIASKADWVAKCRAYEEQFPWVGAEHADPEGFINSYRFMERLNGFFKDDQVVVTDMGTALLSGHQVLRFKEGQRFMTSTGLGEMGYGLPAALGVSFANDRGEVMCLNCDGGMMMNLQELQTMVHHNLPIKLFIFNNDGYLMIKHTQKSLFKSDYVGTDRKSGVSCPDFSRLAAAFDIPAYQIRGWDECDATLAKVQAHTGPVICEVFMHPQQLFSPKLGVVSRADGTLVSPPLEDLSPLIPRDVLEQAMIGGMHEKSKTL
notes: purified enzyme; expression and tag details only in supplement
For the molecule B1, the results for the Km in “purified protein [1]” and in the data set “purified protein [2]” were 24.6 ± 3.8 mM and 0.92 ± 0.26 mM, respectively.
